Experimental data taken from patent US7629135B2, “Toll-like receptor agonists and antagonists and methods of use thereof” (The Board of Trustees of the University of Illinois, priority 2006, dated 2009).

Key:
[1] = system: mouse bone marrow derived macrophages (BMDM); test: G-CSF secretion in mouse BMDM (ELISA); format: cell-based; conditions: for G-CSF secretion by FPRL1 agonists: 16 h
Protocol: SAA induces G-CSF expression in monocytes and macrophages: To determine whether SAA plays a role in neutrophilia, the ability of SAA to stimulate G-CSF expression was investigated. Human peripheral blood monocytes (PBMC) were incubated with SAA, and the concentration of secreted G-CSF in the culture medium was determined at various time points after stimulation. The concentration of SAA used in this experiment (1 μM) was well within its physiological range (0.08 μM to 80 μM). […] Since subsequent studies used mice for measurement of G-CSF secretion and neutrophilia, SAA-induced G-CSF expression in mouse bone marrow derived macrophages (BMDM) was determined, of which 98% were F4/80^+ CD14^+ based on flow cytometry analysis. […] The basal level of G-CSF remained stable at approximately 42 pg/ml/10^6 cells over the entire course of incubation.
It was next determined whether induction of G-CSF expression was a primary function of SAA or resulted from contaminating LPS in the SAA preparation. The LPS concentration in the recombinant SAA preparation was ≦0.1 ng/μg protein, translating into ≦1.14 ng/ml LPS in a typical experiment with 1 μM SAA. LPS at this or 10-fold higher concentrations was tested for its effect on the expression of G-CSF. […] Given that most proteins are heat labile while LPS is heat resistant, the ability of heat-treated SAA (1 μM) and LPS (1 μg/ml) to stimulate G-CSF secretion in mouse BMDM was examined. After boiling for 25 min, LPS retained its ability to induce G-CSF production by ˜83%. […] In parallel experiments, polymyxin B, an amphiphilic cyclic polycationic peptide that specifically binds to LPS and blocks the cytokine-inducing effect of LPS (Stokes et al., 1989), was used to treat SAA or LPS prior to incubation with BMDM. […] Under the same experimental conditions, polymyxin B reduced LPS-stimulated G-CSF secretion by more than 70%.
It was previously shown that FPRL1 is involved in SAA-induced IL-8 production in human neutrophils (He et al., 2003). It has also been shown that SAA binds to FPRL1 and stimulates the production of matrix metalloproteinase (O'Hara et al., 2004). […] A role of TLR2 in SAA-stimulated G-CSF expression was examined.
Cell preparation and culture: Human peripheral blood monocytes were prepared from fresh, heparinized venous blood by Ficoll-Hypaque density-gradient centrifugation. Blood drawing followed a protocol approved by the Institutional Review Board at the University of Illinois at Chicago. Purified monocytes (>93% CD14^+ by flow cytometry) were kept in nonadherent condition in RPMI 1640 containing 0.5% FBS and maintained at 37° C. Mouse macrophages were differentiated from bone marrow cells. Mouse bone marrow cells were aspirated from the femurs of 8-12-week-old mice and cultured at 37° C. in 5% CO2 in RPMI 1640 medium containing 10% FBS, 15% L-cell conditional medium, 10 mM HEPES, 2 mM L-glutamine, 100 IU/ml penicillin, and 50 μg/ml streptomycin. The medium was changed every three days. Macrophages (about 98% F4/80+ by flow cytometry) were obtained after 7 days of culture. The mouse macrophage cell line RAW264.7 cells were maintained in DMEM medium supplemented with 10% FBS, 10 mM HEPES, 2 mM L-glutamine, 100 IU/ml penicillin, and 50 μg/ml streptomycin. TLR2-HeLa cells were generated by transfection of HeLa cell with the expression construct pUNO-hTLR2 (InvivoGen). Stable transfectants were selected with Blasticidin at 20 μg/ml for 2 weeks. Mock-transfected HeLa cells were generated similarly, with a pUNO empty vector. Cells were maintained in DMEM supplemented with 10% heat-inactivated FBS, 2 mM L-glutamine, 100 IU/ml penicillin, and 50 μg/ml streptomycin. Expression of TLR2 was confirmed using an anti-TLR2 antibody (eBioscience) and FTTC-conjugated anti-mouse antibody, on a FACSCalibur flow cytometer (Becton Dickinson). FIGS. 12 and 13 are plasmid maps of pUNO-hTLR2 and pNF-κB-Luc, respectively. […]

[2] = system: RelA/p65 binding to the CK-1 site of the G-CSF promoter; test: Chromatin immunoprecipitation (ChIP) assay in RAW264.7 cells; format: cell-based, mouse; conditions: SAA 1 μM or TNFα 50 ng/ml
Protocol: To investigate the mechanism for SAA-induced G-CSF production, the level of G-CSF transcript in SAA-stimulated BMDM was determined. […] The induction of G-CSF transcript peaked at 4 h after SAA stimulation. Since transcription of the G-CSF gene involves NF-κB binding to the RelA/p65 consensus element in the CK-1 site of the G-CSF promoter (Dunn et al., 1994; Hareng and Hartung, 2002), the role of NF-κB in SAA-stimulated G-CSF expression was determined. […] Using oligonucleotide probe based on the sequence of the CK-1 site (−161 to −152 in the G-CSF promoter), a protein •DNA complex (FIG. 2C) was identified. […] Inclusion of a RelA/p65 antibody blocking peptide in the assay abrogated the immunoprecipitation (FIG. 2D).
ChIP assay: Reagents were obtained from Upstate Biotechnology, and ChIP assay was performed as per manufacturers specifications with minor modifications. Briefly, a total of 1×10^7 RAW264.7 cells were harvested and resuspended in a serum-free DMEM medium absence or presence of 1 μM SAA, or 50 ng/ml of TNFα, and incubated for 30 or 60 min at 37° C. Following stimulation, cells were crosslinked and then washed and resuspended in SDS-lysis buffer, and were sonicated (4 times for 10 s each, with a setting at ‘4’ on a Fisher Sonic 60 dismembrenator). […] The PCR products were analyzed on a 2.5% agarose gel.

[3] = molecular target: T1, TLR2 (Homo sapiens, UniProt O60603); test: NF-κB luciferase reporter assay in TLR2-HeLa cells; format: cell-based; conditions: HDL preincubation
T1 construct: host or cells: HeLa
Protocol: To determine whether TLR2 is a receptor for SAA, a TLR2-expressing cell line was prepared in HeLa cells, which contain very little endogenous TLR2 transcript (FIG. 6A, upper panel). […] TLR2 is a class I transmembrane protein that contains an extracellular ligand binding domain (ectodomain), a transmembrane domain and a cytoplasmic domain consisting of the Toll/IL-1/receptor/Resistance (TIR) motif. Studies have shown that TLR2 forms heterodimers with TLR1 and TLR6 (Ozinsky et al., 2000), which display different preference for TLR2 ligands (Hoebe et al., 2005; Takeuchi et al., 2002). The C-terminal TIR domain is conserved among TLRs and responsible for TLR signaling (O'Neill and Bowie, 2007; Takeda and Akira, 2004). To assess the relative contributions of TLRs to SAA signaling, TLR1, TLR2, TLR4 and TLR6 were overexpressed in the TLR2-HeLa cells, and their effects on SAA-induced NF-κB luciferase reporter activity were determined. […] In addition, the TIR domain deletion mutants (ΔTIR) of these receptors were expressed, which are negative regulators of TLR signaling.
Methods for the generation of TLR2-HeLa stable cell line: HeLa cells stably transfected with human TLR2 gene were generated by transfecting HeLa cells with the expression construct pUNO-hTLR2 (InvivoGen, San Diego, Calif.; GenBank accession number for human TLR2 cDNA is NM_003264) and selected with Blasticidin at concentration of 20 μg/ml for 2 weeks. The control HeLa cells were generated at the same time by transfecting with empty pUNO vector. Cells were maintained in DMEM supplemented with 10% heat-inactivated FB S, 2 mM L-glutamine, 100 IU/ml penicillin, and 50 μg/ml streptomycin. Expression of TLR2 was confirmed using an anti-TLR2 antibody (eBioscience) and FTTC-conjugated anti-mouse antibody, on a FACSCalibur flow cytometer (Becton Dickinson). The TLR2-HeLa and control cells were then co-transfected with 5xNF-κB reporter plasmids (pNF-κB-Luc, Stratagene, Cedar Creek, Tex., catalog no. 219077) and empty SFFV vector bearing a neomycin resistant gene. The TLR2-HeLa/NF-κB reporting cells were obtained after selecting with G418 at concentration of […] for 2-3 weeks. Cells (5′10^5/ml) were grown in DMEM supplemented with 10% heat-inactivated FBS, 2 mM L-glutamine, 100 IU/ml penicillin, and […] streptomycin.
Methods for using HeLa cells in reporter assay: Mock-transfected HeLa and TLR2-HeLa cells were maintained at ˜5×10^5 cells/well in six-well plates, transfected with plasmid expression vectors coding for a 3×κB-directed luciferase reporter, pCMVβ vector DNA (Promega) and/or other expression constructs as indicated. Total DNA concentration was adjusted to 1 μg/sample by addition of empty vector DNA. Transient transfection was performed using LipofectAmine Plus reagent (Invitrogen). […]

T1 sequence (O60603 21-784): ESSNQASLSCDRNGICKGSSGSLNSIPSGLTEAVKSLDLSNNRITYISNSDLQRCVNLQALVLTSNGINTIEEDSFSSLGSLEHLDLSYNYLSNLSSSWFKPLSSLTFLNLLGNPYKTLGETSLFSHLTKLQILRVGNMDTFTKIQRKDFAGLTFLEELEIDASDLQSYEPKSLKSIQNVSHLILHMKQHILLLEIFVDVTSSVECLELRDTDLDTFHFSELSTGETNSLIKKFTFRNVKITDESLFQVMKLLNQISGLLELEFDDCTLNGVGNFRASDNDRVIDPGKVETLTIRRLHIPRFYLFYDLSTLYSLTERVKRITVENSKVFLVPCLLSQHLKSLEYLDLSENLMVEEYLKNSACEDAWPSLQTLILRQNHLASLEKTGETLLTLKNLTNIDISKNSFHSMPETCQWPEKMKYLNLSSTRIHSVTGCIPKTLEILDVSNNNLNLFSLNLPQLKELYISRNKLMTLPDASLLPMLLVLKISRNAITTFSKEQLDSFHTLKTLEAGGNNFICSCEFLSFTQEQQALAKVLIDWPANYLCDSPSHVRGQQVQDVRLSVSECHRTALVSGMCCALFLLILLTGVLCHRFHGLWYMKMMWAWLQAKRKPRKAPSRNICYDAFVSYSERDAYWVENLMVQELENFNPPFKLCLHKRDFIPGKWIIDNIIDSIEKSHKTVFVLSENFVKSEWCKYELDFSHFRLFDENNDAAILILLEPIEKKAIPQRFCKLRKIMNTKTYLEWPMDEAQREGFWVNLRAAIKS
T1 sequence (Q15399 25-786 partner): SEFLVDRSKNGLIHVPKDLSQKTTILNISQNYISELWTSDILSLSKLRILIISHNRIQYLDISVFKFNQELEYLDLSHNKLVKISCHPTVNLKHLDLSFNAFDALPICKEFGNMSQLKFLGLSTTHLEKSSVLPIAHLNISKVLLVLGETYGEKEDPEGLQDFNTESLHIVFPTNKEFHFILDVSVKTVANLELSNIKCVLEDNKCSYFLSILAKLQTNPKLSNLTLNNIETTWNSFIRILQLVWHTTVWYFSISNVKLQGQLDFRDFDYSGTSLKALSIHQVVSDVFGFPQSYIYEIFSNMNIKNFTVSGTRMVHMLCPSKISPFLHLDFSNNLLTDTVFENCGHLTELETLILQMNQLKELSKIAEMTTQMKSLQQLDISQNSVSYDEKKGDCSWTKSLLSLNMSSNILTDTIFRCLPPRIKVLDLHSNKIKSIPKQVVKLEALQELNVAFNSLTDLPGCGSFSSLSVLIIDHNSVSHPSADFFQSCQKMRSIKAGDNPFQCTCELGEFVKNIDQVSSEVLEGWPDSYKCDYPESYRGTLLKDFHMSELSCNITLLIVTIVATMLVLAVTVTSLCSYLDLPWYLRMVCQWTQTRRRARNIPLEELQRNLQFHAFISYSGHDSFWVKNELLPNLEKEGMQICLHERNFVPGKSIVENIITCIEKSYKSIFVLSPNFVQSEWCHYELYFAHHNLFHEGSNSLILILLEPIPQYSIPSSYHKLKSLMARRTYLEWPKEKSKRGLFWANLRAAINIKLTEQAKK

“LESIFRSLLFRVM [MMK-1, reference compound]” was tested, and the “G-CSF secretion by FPRL1 agonists” value ([1]; BMDM) was “unable to stimulate G-CSF secretion”.

With Polymyxin B [reference compound] the “reduction of LPS-stimulated G-CSF secretion” value ([1]; polymyxin B 50 μg/ml pretreatment of LPS 1 μg/ml, BMDM) was “more than 70%” and the “effect on potency of SAA in stimulating G-CSF expression” value ([1]; polymyxin B 50 μg/ml pretreatment of SAA, BMDM) was “minimal effect”.

In the case of TNFα [reference compound], the “pull-down of CK-1 DNA fragment by anti-RelA/p65 antibody” value [2] is reported as “able to pull-down the CK-1 DNA fragment”.

For WKYMVm [reference compound], the “G-CSF secretion by FPRL1 agonists” value ([1]; BMDM) was “unable to stimulate G-CSF secretion”.

pertussis toxin [reference compound] was tested, and the “inhibition of SAA-induced G-CSF secretion” value ([1]; BMDM pretreated overnight with pertussis toxin up to 200 ng/ml, then SAA 16 h) was “no significant inhibition”.

B1: L7A: SAA with Leucine to Alanine mutation at position 7 (protein)
chain: RSFFSFAGEAFDGARDMWRAYSDMREANYIGSDKYFHARGNYDAAKRGPGGAWAAEVITDARENIQRFFGHGAEDSLADQAANEWGRSGKDPNHFRPAGLPEKY
B1 was tested, and the “effect of L7A mutation of SAA on the reduction by HDL of NF-κB activation” value [3] was “partially reversed the reduction effect by HDL”.
